Results from the supplement of paper PMC10307832.

Tests used:
Assay in all cases: relative viability (nuclei count vs DMSO), 5 days (fraction); higher = more cells survive
[1] = compound: C1COCCN1C2=NC(=NC3=C2OC4=C3C=CC=N4)C5=CC(=CC=C5)NC(=O)C6=CN=C(C=C6)N + CC(=O)c1c(C)c2cnc(Nc3ccc(N4CCNCC4)cn3)nc2n(C2CCCC2)c1=O [Palbociclib] (partner 0.5 µM)
Procedure, shortened: (§1)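 Medians of duplicate plates are given as relative viability. That measure is the nuclei count in treated wells divided by the count in vehicle wells. Counts were taken on 4× images of lung cancer cell lines in 1536-well plates, 5 days after pin-tool dosing the day after seeding with one drug alone or a fixed anchor-drug dose plus five library-drug doses (not always all listed) in √10 steps.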

[2] = compound: C1COCCN1C2=NC(=NC3=C2OC4=C3C=CC=N4)C5=CC(=CC=C5)NC(=O)C6=CN=C(C=C6)N + N=C(N)NC(=N)NCCc1ccccc1 [Phenformin] (partner 250 µM)
Procedure, shortened: as §1

[3] = compound: CN1CCC(CNc2ccc3ncc(-c4cccc(OC(F)(F)F)c4)n3n2)CC1 [SGI-1776] + C[C@@H](Oc1cc(-c2cnn(C3CCNCC3)c2)cnc1N)c1c(Cl)ccc(F)c1Cl [Crizotinib] (partner 1 µM)
Procedure, shortened: as §1

[4] = compound: Nc1ccccc1NC(=O)c1ccc(CNC(=O)OCc2cccnc2)cc1 [Entinostat] + CC(C)C[C@H](NC(=O)[C@H](Cc1ccccc1)NC(=O)c1cnccn1)B(O)O [Bortezomib] (partner 0.002 µM)
Procedure, shortened: as §1

Cell Line | relative viability ([1]; first compound 0.02 µM) | relative viability ([1]; first compound 0.06325 µM) | relative viability ([1]; first compound 0.2 µM) | relative viability ([1]; first compound 0.6325 µM) | relative viability ([1]; first compound 2 µM) | relative viability ([2]; first compound 0.02 µM) | relative viability ([2]; first compound 0.06325 µM) | relative viability ([2]; first compound 0.2 µM) | relative viability ([2]; first compound 0.6325 µM) | relative viability ([2]; first compound 2 µM) | relative viability ([3]; first compound 0.08 µM) | relative viability ([3]; first compound 0.8 µM) | relative viability ([3]; first compound 2.53 µM) | relative viability ([3]; first compound 8 µM) | relative viability ([4]; first compound 0.02 µM) | relative viability ([4]; first compound 0.06325 µM) | relative viability ([4]; first compound 0.2 µM) | relative viability ([4]; first compound 0.6325 µM) | relative viability ([4]; first compound 2 µM)
SW 900 | 0.52 | 0.555 | 0.525 | 0.548 | 0.345 | 0.425 | 0.674 | 0.557 | 0.376 | 0.345 | – | – | – | – | – | – | – | – | –
NCI-H1944 | 0.354 | 0.381 | 0.336 | 0.304 | 0.253 | 0.217 | 0.244 | 0.182 | 0.194 | 0.142 | 1.1 | 0.956 | 1.03 | 0.867 | – | – | – | – | –
NCI-H838 | 0.194 | 0.212 | 0.195 | 0.197 | 0.175 | 0.514 | 0.687 | 0.485 | 0.414 | 0.198 | 0.885 | 0.854 | 0.689 | 0.319 | 0.959 | 1.21 | 0.947 | 0.634 | 0.385
NCI-H1651 | 0.51 | 0.509 | 0.499 | 0.495 | 0.395 | 0.333 | 0.302 | 0.315 | 0.321 | 0.182 | 0.866 | 0.834 | 0.814 | 0.879 | 0.958 | 0.923 | 0.921 | 0.926 | 0.84
HCC-827 | 0.392 | 0.537 | 0.491 | 0.538 | 0.34 | 0.384 | 0.43 | 0.419 | 0.416 | 0.386 | 0.956 | 0.975 | 0.985 | 0.915 | 0.979 | 1.02 | 0.976 | 0.979 | 0.539
HCC-366 | 0.397 | 0.435 | 0.367 | 0.419 | 0.22 | 0.63 | 0.709 | 0.644 | 0.644 | 0.573 | 0.549 | 0.557 | 0.393 | 0.098 | 1.08 | 1.15 | 0.831 | 0.41 | 0.0738
HARA | 0.207 | 0.242 | 0.246 | – | 0.263 | 0.413 | 0.586 | 0.487 | 0.431 | 0.363 | 1.17 | 1.17 | 1.01 | 0.775 | 1.13 | 1.1 | 1.11 | 1.04 | 0.465
NCI-H441 | 0.208 | 0.178 | 0.198 | 0.175 | 0.198 | 0.798 | 0.868 | 0.731 | 0.833 | 0.527 | 0.701 | 0.54 | 0.731 | 0.61 | 0.443 | 0.598 | 0.409 | 0.181 | 0.118
NCI-H1299 | – | – | – | – | – | – | – | – | – | – | 0.969 | 0.969 | 0.917 | 0.807 | 1.04 | 0.985 | 0.934 | 0.858 | 0.732
